Measurements taken from patent US20160311788A1, “Antifouling Compounds And Use Thereof” (National University of Singapore, priority 2008, published 2016).

Columns and labels:
[1] = test system: marine bacteria strain S9; test: disc inhibition assay, strain S9; type: cell-based, Bacillus algicola; settings: Guptibacillus algicola, S9, 24 h
Summary of the method: (§1)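 Compounds were applied at 50 μg per 6 mm disc (from 2 mg/ml DMSO stock; DMSO control) onto lawns of Singapore coastal fouling bacteria on marine agar. After overnight incubation in the dark at 35 °C, inhibition-zone diameters were caliper-measured; mean of two replicates.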

[2] = test system: marine bacteria strain S17; test: disc inhibition assay, strain S17; type: cell-based, Gordonia terrae; settings: Gordonia terrae, S17, 24 h
Summary of the method: as §1

[3] = test system: Escherichia coli (Strain K12; ATCC 15222); test: disc inhibition assay, REF 1; type: cell-based
Experimental: (§2) 13 strains of marine bacteria were isolated from fouling communities located in the coastal waters around Singapore. These were characterized in earlier studies and reported in Teo et al. (U.S. patent application Ser. No. 11/265,833) and Choong et al (in prep). In addition, four reference bacterial strains were added tested: Escherichia coli (Strain K12, ATCC 15222), E. coli (strain DH5a), Pseudomonas aeruginosa (strain LMG 12228; ATCC 15692) and P. putida (strain KT2440; ATCC 47054). All the bacteria were also tested against five antibiotics: ampicillin (AMP), tetracycline (TETR), erythromycin (ERY), chloramphenicol (CHL) and streptomycin (STREP).
(§3) Disks comprising the compounds to be tested were prepared as follows. The antibacterial assay, the pure compounds were made up to a concentration of 2 mgml^−1 in DMSO. 25 μl of the stock was pipetted onto each 6 mm sterile disc (Macherey-Nagel #484000) to obtain 50 μg of compound per disc. Equivalent volume of DMSO was used inoculated for the control.
(§4) For all disk inhibition assays, bacterial cultures were grown in marine broth (Pronadisa #1217.00). Sterile swabs dipped into the cultures were used to inoculate Marine Agar plates with a bacterial lawn by smearing the culture over the surface. After inoculating the plates, discs with antibiotics, pharmaceuticals or control blanks were placed on each plate. Each concentration of antibiotic or pharmaceutical was tested with two replicates. After the disks were placed on the agar surface, plates were incubated overnight in the dark at 35° C. After incubation, plates were examined for zones of inhibition or clearing around control and treated disks. The diameter of any zone of clearing or inhibition was measured using Vernier calipers. There were two replicates per treatment, and the average was taken. There was no zone of inhibition around the control blanks in all the assays.

[4] = test system: marine bacteria strain S27; test: disc inhibition assay, strain S27; type: cell-based, Tenacibaculum lutimaris
Summary of the method: as §1

[5] = test system: Escherichia coli (Strain DH5a); test: disc inhibition assay, REF 2; type: cell-based
Experimental: as §2, §3, §4

[6] = test system: marine bacteria strain S18; test: disc inhibition assay, strain S18; type: cell-based, Microbacterium esteraromaticum; settings: Microbacterium esteraromaticum, S18, 24 h
[7] = test system: marine bacteria strain S4; test: disc inhibition assay, strain S4; type: cell-based, Bacillus algicola; settings: Guptibacillus algicola, S4, 24 h
Summary of the method: as §1

[8] = test system: marine bacteria strain S10; test: disc inhibition assay, strain S10; type: cell-based, Halobacillus trueperi; settings: Halobacillus trueperi, S10, 24 h
Summary of the method: as §1

[9] = test system: marine bacteria strain S30; test: disc inhibition assay, strain S30; type: cell-based, Bacillus borophilicus; settings: Bacillus, S30, 24 h
Summary of the method: as §1

[10] = test system: marine bacteria strain S1; test: disc inhibition assay, strain S1; type: cell-based, Rhodovulum iodosum
Summary of the method: as §1

[11] = test system: marine bacteria strain S16; test: disc inhibition assay, strain S16; type: cell-based, Pseudoalteromonas piscicida; settings: Pseudoalteromonas piscicida, S16, 24 h
Summary of the method: as §1

[12] = test system: marine bacteria strain S14; test: disc inhibition assay, strain S14; type: cell-based, Vibrio probioticus
[13] = test system: Pseudomonas aeruginosa (strain LMG 12228; ATCC 15692); test: disc inhibition assay, REF 3; type: cell-based
Experimental: as §2, §3, §4

[14] = test system: Pseudomonas putida (Strain KT2440; BCRC 10459); test: disc inhibition assay, REF 4; type: cell-based
Experimental: as §2, §3, §4

[15] = test system: marine bacteria strain S29; test: disc inhibition assay, strain S29; type: cell-based, Bacillus hwajinpoensis; settings: Guptibacillus hwajinpoensis, S29, 24 h
Summary of the method: as §1

[16] = test system: marine bacteria strain S3; test: disc inhibition assay, strain S3; type: cell-based, Erythrobacter aquimaris
Summary of the method: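 Disc inhibition assay against a marine bacterial strain isolated from fouling communities in Singapore coastal waters. The strain was grown in marine broth and swabbed over Marine Agar plates as a lawn. 6 mm sterile discs loaded with compound in DMSO, or DMSO controls, were placed on the plates and incubated overnight in the dark at 35° C.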

[17] = test system: marine bacteria strain S28; test: disc inhibition assay, strain S28; type: cell-based, Arthrobacter protophormial; settings: Arthrobacter, S28, 24 h
Summary of the method: as §1

With CC[C@H]1OC(=O)[C@H](C)[C@@H](O[C@H]2C[C@@](C)(OC)[C@@H](O)[C@H](C)O2)[C@H](C)[C@@H](O[C@@H]2O[C@H](C)C[C@H](N(C)C)[C@H]2O)[C@](C)(O)C[C@@H](C)C(=O)[C@H](C)[C@@H](O)[C@]1(C)O [ERY, Erythromycin, reference compound] the zone of inhibition at 5 µg/disc ([1]; strain 9, 5 ug) was greater than 10 mm, the zone of inhibition at 15 µg/disc ([1]; strain 9, 15 ug) was greater than 10 mm and the zone of inhibition at 5 µg/disc ([2]; strain 17, 5 ug) was greater than 10 mm. For the same compound, the zone of inhibition at 15 µg/disc ([2]; strain 17, 15 ug) was greater than 10 mm, the zone of inhibition ([3]; REF 1, 5 ug) was “−” and the zone of inhibition ([3]; REF 1, 15 ug) was “+ (2-5 mm zone of inhibition around each disk was observed.)”. The zone of inhibition at 5 µg/disc ([4]; Tenacibaculum lutimaris, S27, 24 h, strain 27, 5 ug) was 5 to 10 mm, the zone of inhibition at 15 µg/disc ([4]; Tenacibaculum lutimaris, S27, 24 h, strain 27, 15 ug) was 5 to 10 mm and the zone of inhibition ([5]; REF 2, 5 ug) was “−”. For the same compound, the zone of inhibition ([5]; REF 2, 15 ug) was “+ (2-5 mm zone of inhibition around each disk was observed.)”, the zone of inhibition at 5 µg/disc ([6]; strain 18, 5 ug) was 2 to 5 mm and the zone of inhibition at 15 µg/disc ([6]; strain 18, 15 ug) was 5 to 10 mm. The zone of inhibition at 5 µg/disc ([7]; strain 4, 5 ug) was greater than 10 mm, the zone of inhibition at 15 µg/disc ([7]; strain 4, 15 ug) was greater than 10 mm and the zone of inhibition at 5 µg/disc ([8]; strain 10, 5 ug) was 5 to 10 mm. For the same compound, the zone of inhibition at 15 µg/disc ([8]; strain 10, 15 ug) was greater than 10 mm, the zone of inhibition at 5 µg/disc ([9]; strain 30, 5 ug) was 5 to 10 mm and the zone of inhibition at 15 µg/disc ([9]; strain 30, 15 ug) was 5 to 10 mm. For the same compound, the zone of inhibition ([10]; strain 1, 5 ug) was “−”, the zone of inhibition ([10]; strain 1, 15 ug) was “−” and the zone of inhibition at 5 µg/disc ([11]; strain 16, 5 ug) was 2 to 5 mm. The zone of inhibition at 15 µg/disc ([11]; strain 16, 15 ug) was 2 to 5 mm, the zone of inhibition at 15 µg/disc ([12]; Vibrio, S14, 24 h) was 2 to 5 mm and the zone of inhibition ([12]; strain 14, 5 ug) was “−”. The zone of inhibition ([13]; REF 3, 5 ug) was “+ (2-5 mm zone of inhibition around each disk was observed.)”, the zone of inhibition ([13]; REF 3, 15 ug) was “+ (2-5 mm zone of inhibition around each disk was observed.)” and the zone of inhibition ([14]; REF 4, 5 ug) was “+ (2-5 mm zone of inhibition around each disk was observed.)”. For the same compound, the zone of inhibition ([14]; REF 4, 15 ug) was “+ (2-5 mm zone of inhibition around each disk was observed.)”, the zone of inhibition at 5 µg/disc ([15]; strain 29, 5 ug) was greater than 10 mm and the zone of inhibition at 15 µg/disc ([15]; strain 29, 15 ug) was greater than 10 mm. For the same compound, the zone of inhibition at 5 µg/disc ([16]; Qipengyuania aquimaris, S3, 24 h, strain 3, 5 ug) was 5 to 10 mm, the zone of inhibition at 15 µg/disc ([16]; Qipengyuania aquimaris, S3, 24 h, strain 3, 15 ug) was 5 to 10 mm and the zone of inhibition at 5 µg/disc ([17]; strain 28, 5 ug) was greater than 10 mm. It also gave a zone of inhibition at 15 µg/disc ([17]; strain 28, 15 ug) greater than 10 mm.
Compound [H]/N=C(/N)N[C@H]1[C@H](O)[C@@H](O)[C@H](O[C@@H]2O[C@@H](C)[C@](O)(C=O)[C@H]2O[C@@H]2O[C@@H](CO)[C@H](O)[C@@H](O)[C@@H]2NC)[C@@H](N/C(N)=N\[H])[C@@H]1O [STREP, Streptomycin, reference compound] has a zone of inhibition at 10 µg/disc ([1]; strain 9, 10 ug) of 2 to 5 mm, a zone of inhibition at 25 µg/disc ([1]; strain 9, 25 ug) of 2 to 5 mm and a zone of inhibition at 10 µg/disc ([2]; strain 17, 10 ug) of 2 to 5 mm. For the same compound, the zone of inhibition at 25 µg/disc ([2]; strain 17, 25 ug) was 5 to 10 mm, the zone of inhibition ([3]; REF 1, 10 ug) was “+ (2-5 mm zone of inhibition around each disk was observed.)” and the zone of inhibition ([3]; REF 1, 25 ug) was “++ (5-10 mm zone was observed.)”. The zone of inhibition ([4]; strain 27, 10 ug) was “−”, the zone of inhibition ([4]; strain 27, 25 ug) was “−” and the zone of inhibition ([5]; REF 2, 10 ug) was “−”. For the same compound, the zone of inhibition ([5]; REF 2, 25 ug) was “−”, the zone of inhibition at 10 µg/disc ([6]; strain 18, 10 ug) was 2 to 5 mm and the zone of inhibition at 25 µg/disc ([6]; strain 18, 25 ug) was 5 to 10 mm. The zone of inhibition at 10 µg/disc ([7]; strain 4, 10 ug) was 2 to 5 mm, the zone of inhibition at 25 µg/disc ([7]; strain 4, 25 ug) was 5 to 10 mm and the zone of inhibition at 10 µg/disc ([8]; strain 10, 10 ug) was 2 to 5 mm. The zone of inhibition at 25 µg/disc ([8]; strain 10, 25 ug) was 2 to 5 mm, the zone of inhibition at 10 µg/disc ([9]; strain 30, 10 ug) was 2 to 5 mm and the zone of inhibition at 25 µg/disc ([9]; strain 30, 25 ug) was 5 to 10 mm. The zone of inhibition at 10 µg/disc ([10]; Rhodovulum iodosum, S1, strain 1, 10 ug) was 5 to 10 mm, the zone of inhibition at 25 µg/disc ([10]; Rhodovulum iodosum, S1, strain 1, 25 ug) was greater than 10 mm and the zone of inhibition at 10 µg/disc ([11]; strain 16, 10 ug) was 2 to 5 mm. The zone of inhibition at 25 µg/disc ([11]; strain 16, 25 ug) was 5 to 10 mm, the zone of inhibition at 10 µg/disc ([12]; Vibrio, S14, 24 h) was 2 to 5 mm and the zone of inhibition at 25 µg/disc ([12]; Vibrio, S14, 24 h) was 2 to 5 mm. The zone of inhibition ([13]; REF 3, 10 ug) was “+ (2-5 mm zone of inhibition around each disk was observed.)”, the zone of inhibition ([13]; REF 3, 25 ug) was “++ (5-10 mm zone was observed.)” and the zone of inhibition ([14]; REF 4, 10 ug) was “+ (2-5 mm zone of inhibition around each disk was observed.)”. The zone of inhibition ([14]; REF 4, 25 ug) was “++ (5-10 mm zone was observed.)”, the zone of inhibition at 10 µg/disc ([15]; strain 29, 10 ug) was 2 to 5 mm and the zone of inhibition at 25 µg/disc ([15]; strain 29, 25 ug) was 5 to 10 mm. The zone of inhibition ([16]; strain 3, 10 ug) was “−”, the zone of inhibition ([16]; strain 3, 25 ug) was “−” and the zone of inhibition at 10 µg/disc ([17]; strain 28, 10 ug) was 2 to 5 mm. The zone of inhibition at 25 µg/disc ([17]; strain 28, 25 ug) was 5 to 10 mm.
